Data on 18 molecules can be found in paper PMC11901765, “Discovery of N-(2-Acetamidobenzo[d]thiazol-6-yl)-2-phenoxyacetamide Derivatives as Novel Potential BCR-ABL1 Inhibitors Through Structure-Based Virtual Screening” (Molecules, 2025).

Read-outs that look alike come from different tables or passages of the source.

For one assay, the system named is MV411. As to the kind of experiment: CCK-8 viability assay, MV411 cells. Format: cell-based. How it is done:
(§1) Cell viability was assessed using the Cell Counting Kit-8 (CCK-8) assay. […] After 72 h of incubation, 10 μL of CCK-8 reagent was added to each well, and the plates were further incubated for 2–4 h. Absorbance was measured at 450 nm using a microplate reader. Dose-response curves were generated and analyzed using GraphPad Prism 8 (version 8.4.3.686).
(Tetrazolium assays rely on reduction of a dye to a coloured formazan, in cell work by metabolically active cells.)

A further assay relates to HL60. As to the kind of experiment: CCK-8 viability assay, HL60 cells. In kind it is cell-based. The method, then:
as §1

The subject of another assay is parental Ba/F3 cells. The experiment in a line: CCK-8 viability assay, parental Ba/F3 cells. Format: cell-based. As to conditions: mean ± SD; for GI50: CCK8 kit; for IC50: Table 3. The method, then:
as §1

The test system of assay [1] is K562 cells. As to the kind of experiment: Apoptosis assay (Annexin V/PI flow cytometry). As to conditions: 10m 10 μM, asciminib 5 μM, 48 or 72 h.
Experimental: Cell apoptosis was evaluated through Annexin V and propidium iodide (PI) dual staining using an Annexin V-FITC Apoptosis Detection Kit (Vazyme, #A211-02, Nanjing, China) following the manufacturer’s protocol.
The subject of another assay is Ba/F3 (BCR-ABL1) cells. As to the kind of experiment: CCK-8 viability assay, Ba/F3 (BCR-ABL1) cells. In kind it is cell-based. To be noted: for GI50: Mus musculus, BaF3, CCK8 kit; for GI50 / Ba/F3 (BCR-ABL1) Inhibition (%) / IC50: mean ± SD; for Ba/F3 (BCR-ABL1) Inhibition (%): measured at 10 μM; for IC50: Table 3. The method, then:
as §1

Assay [2] has as its system K562 cells. The experiment in a line: Synergy study with asciminib (CCK-8, SynergyFinder 3.0, ZIP model). In kind it is cell-based. The method, then:
The drug combination effects were quantified as percentage inhibition of cell viability. The experimental data were analyzed using SynergyFinder 3.0, with a four-parameter logistic regression (LL4) model selected for curve fitting and data analysis. The Synergy Score based on the ZIP (Zero Interaction Potency) model is used to evaluate the synergistic effects of drug combinations.

The test system of assay [3] is K562 cells. As to the kind of experiment: CCK-8 viability assay, K562 cells. Format: cell-based. As to conditions: 72 h; read-out: GI50 (IC50) K562 cells. How it is done:
Cell viability was assessed using the Cell Counting Kit-8 (CCK-8) assay. Cells were seeded in 96-well plates at a density of 10,000 cells per well in RPMI 1640 medium. Test compounds were prepared by serially diluting stock solutions 3-fold in DMSO to generate an eight-point concentration gradient (100 μM to 0.045 μM), followed by addition to the cultured cells. After 72 h of incubation, 10 μL of CCK-8 reagent was added to each well, and the plates were further incubated for 2–4 h. Absorbance was measured at 450 nm using a microplate reader. Dose-response curves were generated and analyzed using GraphPad Prism 8 (version 8.4.3.686).

Assay [4] relates to Ba/F3 (BCR-ABL^T315I) cells. As to the kind of experiment: CCK-8 viability assay, Ba/F3 (BCR-ABL^T315I) cells. Format: cell-based. To be noted: Table 3; mean ± SD. The method, then:
as §1

Assay [5] deals with BCR-ABL-dependent signaling (p-ABL1, p-STAT5, p-CRKL) in K562 cells. As to the kind of experiment: Western blot of BCR-ABL-dependent signaling. To be noted: 3.3 and 10 μM, 1 h. Format: cell-based. The method, then: Western blot analysis was conducted following established protocols. K562 cells were treated with varying concentrations of the test compound for 60 min, followed by protein extraction using RIPA buffer. Protein quantification was performed using bicinchoninic acid assay, and 30–60 μg of protein samples were resolved by 10% sodium dodecyl sulfate-polyacrylamide gel electrophoresis before being transferred onto nitrocellulose membranes. Membranes were probed with primary antibodies overnight at 4 °C. Following incubation with horseradish peroxidase (HRP)-conjugated secondary antibodies (Thermo Scientific, Waltham, MA, USA), protein bands were detected using a chemiluminescent HRP substrate (Millipore Corporation, #WBKLS0500, Billerica, MA, USA) and imaged with a Syngene GeneGnome-XRQ-NPC imager (Synoptics, Britain). Quantitative analysis was performed by measuring band intensity using ImageJ (version 1.43) software. The following primary antibodies were used: c-Abl (ABclonal, #A0282, Woburn, MA, USA), phosphor-c-Abl (ABclonal, #AP0001), STAT5 (ABclonal, #A5029), phosphor-STAT5 (ABclonal, #AP0887), CRKL (ABclonal, #A11735), and phospho-CRKL (ABclonal, #AP0824).

[6] abbreviates: Table 3, mean ± SD, read-out: IC50 MV411.
The mark [7] stands for this setting: Table 3, mean ± SD, read-out: IC50 HL60.

As usually defined, the IC50 is the concentration that inhibits the measured activity by half. As usually defined, the GI50 is the concentration giving 50% growth inhibition. On to `O=C(Nc1ccc(OC(F)(F)Cl)cc1)c1cnc(N2CC[C@@H](O)C2)c(-c2cc[nH]n2)c1` [Asciminib, reference compound], for which the IC50 is over 100 µM in the assay on MV411 (Homo sapiens, MV4-11, read-out: IC50 MV411); over 100 µM in the assay on HL60 (Homo sapiens, HL-60, read-out: IC50 HL60); over 100 µM with parental Ba/F3 cells (Mus musculus, BaF3). Also, the concentration for 50% growth inhibition (GI50) in the assay on parental Ba/F3 cells (Mus musculus, BaF3) was over 100 µM. Also, the “apoptosis induction (in words)” value with K562 cells [1] is listed as “significantly induced apoptosis”.

With `CCC(=O)Nc1nc2ccc(NC(=O)COc3ccc(Cl)cc3)cc2s1` [Compound A8], in the assay with Ba/F3 (BCR-ABL1) cells (10 μM), the “inhibition of Ba/F3 (BCR-ABL1) cells (in words)” value is “showed inhibition potency”. For the same molecule, the GI50 was 6.4 ± 1.6 µM in the assay on Ba/F3 (BCR-ABL1) cells and over 100 µM in the assay on parental Ba/F3 cells (Mus musculus, BaF3).

`CCC(=O)Nc1nc2ccc(NC(=O)COc3ccccc3)cc2s1` [Compound A12]: the GI50 in the assay with Ba/F3 (BCR-ABL1) cells is 10.7 ± 2.6 µM; with parental Ba/F3 cells (Mus musculus, BaF3), over 100 µM.

With `O=C(COc1ccccc1)Nc1ccc2nc(NC(=O)c3ccccc3)sc2c1` [Compound A13], the GI50 in the assay on Ba/F3 (BCR-ABL1) cells was 19.5 ± 4.7 µM; in the assay on parental Ba/F3 cells (Mus musculus, BaF3), over 100 µM.

`CS(=O)(=O)Nc1nc2ccc(NC(=O)COc3ccccc3)cc2s1` [Compound A14]: the GI50 in the assay on Ba/F3 (BCR-ABL1) cells was 1.2 ± 0.2 µM; in the assay on parental Ba/F3 cells (Mus musculus, BaF3) it was 37.6 ± 5.7 µM.

Turning to `Cc1ccc(S(=O)(=O)Nc2nc3ccc(NC(=O)COc4ccccc4)cc3s2)cc1` [Compound A15], the GI50 in the assay with Ba/F3 (BCR-ABL1) cells stood at 3.9 ± 0.5 µM; in the assay on parental Ba/F3 cells (Mus musculus, BaF3), 42.9 ± 10.4 µM.

Consider `Cc1ccc(NC(=O)c2ccc(CN3CCN(C)CC3)cc2)cc1Nc1nccc(-c2cccnc2)n1` [Imatinib, imatinib, reference compound], for which the “effect in combination with asciminib (in words)” value in the assay on K562 cells [2] is given as “antagonistic effect”.

For “N-(2-Acetamidobenzo[d]thiazol-6-yl)-2-(2-chlorophenoxy)acetamide [Compound 10j]”, in the assay with Ba/F3 (BCR-ABL1) cells, the “Ba/F3 (BCR-ABL1) Inhibition (%)” value worked out at 68 ± 2%.

As for “N-(2-Acetamidobenzo[d]thiazol-6-yl)-2-(2-fluorophenoxy)acetamide [Compound 10g]”, the “Ba/F3 (BCR-ABL1) Inhibition (%)” value in the assay on Ba/F3 (BCR-ABL1) cells stood at 65 ± 3%.

Take “N-(2-Acetamidobenzo[d]thiazol-6-yl)-2-(3,4-dichlorophenoxy)acetamide [Compound 10m]”: the 50% inhibitory concentration (IC50) with Ba/F3 (BCR-ABL1) cells is 0.63 ± 0.1 µM; in the assay with MV411 (setting [6]), over 100 µM; in the assay with HL60 (setting [7]) it was 54.2 ± 5.5 µM; in the assay on K562 cells [3], 0.98 µM; with parental Ba/F3 cells, over 100 µM; in assay [4], 25.2 ± 1.1 µM. The “Ba/F3 (BCR-ABL1) Inhibition (%)” value in the assay with Ba/F3 (BCR-ABL1) cells was found to be 93 ± 5%. Moreover, in the assay with K562 cells [2], the “effect in combination with asciminib (in words)” value is listed as “powerful synergistic activity”. For the same molecule, the “apoptosis induction (in words)” value in the assay on K562 cells [1] is given as “significantly induced apoptosis”. The “inhibition of BCR-ABL-dependent signaling pathway (in words)” value in assay [5] was “potently inhibited”.

For the molecule “N-(2-Acetamidobenzo[d]thiazol-6-yl)-2-(3-chlorophenoxy)acetamide [Compound 10k]”, the “Ba/F3 (BCR-ABL1) Inhibition (%)” value with Ba/F3 (BCR-ABL1) cells is on record as 60 ± 6%.

For “N-(2-Acetamidobenzo[d]thiazol-6-yl)-2-(3-fluorophenoxy)acetamide [Compound 10h]”, the “Ba/F3 (BCR-ABL1) Inhibition (%)” value in the assay with Ba/F3 (BCR-ABL1) cells was 61 ± 5%.

Turning to “N-(2-Acetamidobenzo[d]thiazol-6-yl)-2-(4-chlorophenoxy)acetamide [Compound 10l]”, the “Ba/F3 (BCR-ABL1) Inhibition (%)” value in the assay with Ba/F3 (BCR-ABL1) cells is listed as 71 ± 4%.

Regarding “N-(2-Acetamidobenzo[d]thiazol-6-yl)-2-(4-fluorophenoxy)acetamide [Compound 10i]”, the “Ba/F3 (BCR-ABL1) Inhibition (%)” value with Ba/F3 (BCR-ABL1) cells is 58 ± 2%.

Take “N-(2-Acetamidobenzo[d]thiazol-6-yl)-2-(m-tolyloxy)acetamide [Compound 10t]”: the “Ba/F3 (BCR-ABL1) Inhibition (%)” value in the assay on Ba/F3 (BCR-ABL1) cells was found to be 28 ± 5%.

As to “N-(2-Acetamidobenzo[d]thiazol-6-yl)-2-(naphthalen-2-yloxy)acetamide [Compound 10f]”, the IC50 with Ba/F3 (BCR-ABL1) cells was 2.2 ± 0.5 µM; in the assay with MV411 (setting [6]), over 100 µM; in the assay with HL60 (setting [7]) it was over 100 µM; in the assay with K562 cells [3] it was 2.7 µM; in the assay with parental Ba/F3 cells it was over 100 µM; in assay [4], over 100 µM. Also, the “Ba/F3 (BCR-ABL1) Inhibition (%)” value in the assay with Ba/F3 (BCR-ABL1) cells turned out to be 88 ± 2%.

Turning to “N-(2-Acetamidobenzo[d]thiazol-6-yl)-2-(o-tolyloxy)acetamide [Compound 10s]”, the “Ba/F3 (BCR-ABL1) Inhibition (%)” value with Ba/F3 (BCR-ABL1) cells worked out at 22 ± 2%.

“N-(2-Acetamidobenzo[d]thiazol-6-yl)-2-phenoxyacetamide [Compound 10a]”: the “Ba/F3 (BCR-ABL1) Inhibition (%)” value with Ba/F3 (BCR-ABL1) cells is given as 52 ± 5%.
